Test results published in PubChem BioAssay AID248 (DTP/NCI, 2004).
Several values for one entry are separate records, joined by “and”; a condition that tells them apart may be missing. Identical values can stand only once. Toxic doses and inconclusive results are not listed.

Test system: L1210 leukemia ip in BDF1 mice, survival T/C
Assay: NCI In Vivo Anticancer Drug Screen. Data for tumor model L1210 Leukemia (intraperitoneal) in B6D2F1 (BDF1) mice
Details: endpoint: mean survival time, higher = longer survival
Procedure, shortened: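 Tumor cells were implanted, animals were treated, and survival was followed. The result divides the treated measurement by the vehicle-control measurement.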

[1] = dose: 100.0 mg/kg/injection, schedule: Q01DX009 (ip), vehicle: Klucel (hydroxypropylcellulose) (HPC)
[2] = dose: 200.0 mg/kg/injection, schedule: Q01DX001 (ip), vehicle: carboxymethylcellulose (CMC)
[3] = dose: 200.0 mg/kg/injection, schedule: Q01DX009 (ip), vehicle: Klucel (hydroxypropylcellulose) (HPC)
[4] = dose: 100.0 mg/kg/injection, schedule: Q04DX003 (ip), vehicle: Klucel (hydroxypropylcellulose) (HPC)
[5] = dose: 100.0 mg/kg/injection, schedule: Q04DX003 (ip), vehicle: saline
[6] = dose: 200.0 mg/kg/injection, schedule: Q04DX003 (ip), vehicle: saline
[7] = dose: 400.0 mg/kg/injection, schedule: Q04DX003 (ip), vehicle: saline
[8] = dose: 100.0 mg/kg/injection, schedule: Q01DX009 (ip), vehicle: saline with Tween-80
[9] = dose: 200.0 mg/kg/injection, schedule: Q01DX009 (ip), vehicle: saline with Tween-80
[10] = dose: 100.0 mg/kg/injection, schedule: Q04DX002 (ip), vehicle: Klucel (hydroxypropylcellulose) (HPC)
[11] = dose: 200.0 mg/kg/injection, schedule: Q04DX002 (ip), vehicle: Klucel (hydroxypropylcellulose) (HPC)
[12] = dose: 400.0 mg/kg/injection, schedule: Q04DX002 (ip), vehicle: Klucel (hydroxypropylcellulose) (HPC)
[13] = dose: 100.0 mg/kg/injection, schedule: Q04DX003 (ip), vehicle: saline with Tween-80
[14] = dose: 200.0 mg/kg/injection, schedule: Q04DX003 (ip), vehicle: saline with Tween-80
[15] = dose: 400.0 mg/kg/injection, schedule: Q04DX003 (ip), vehicle: saline with Tween-80
[16] = dose: 200.0 mg/kg/injection, schedule: Q04DX003 (ip), vehicle: Klucel (hydroxypropylcellulose) (HPC)
[17] = dose: 400.0 mg/kg/injection, schedule: Q01DX009 (ip), vehicle: Klucel (hydroxypropylcellulose) (HPC)

Cc1ccc(NC(=O)N(CCCCl)N=O)cc1
T/C (dose: 25.0 mg/kg/injection, schedule: Q01DX009 (ip), vehicle: Klucel (hydroxypropylcellulose) (HPC)): 103 % of control
T/C (dose: 50.0 mg/kg/injection, schedule: Q01DX009 (ip), vehicle: Klucel (hydroxypropylcellulose) (HPC)): 93 % of control
T/C (dose: 59.0 mg/kg/injection, schedule: Q01DX009 (ip), vehicle: carboxymethylcellulose (CMC)): 120 % of control
T/C (dose: 88.0 mg/kg/injection, schedule: Q01DX009 (ip), vehicle: carboxymethylcellulose (CMC)): 117 % of control
T/C (dose: 100.0 mg/kg/injection, schedule: Q01DX001 (ip), vehicle: carboxymethylcellulose (CMC)): 115 % of control
T/C [1]: 97 % of control
T/C (dose: 118.0 mg/kg/injection, schedule: Q01DX001 (sc), vehicle: olive oil, sesame oil, peanut oil): 107 % of control
T/C (dose: 133.0 mg/kg/injection, schedule: Q01DX009 (ip), vehicle: carboxymethylcellulose (CMC)): 88 % of control
T/C (dose: 177.0 mg/kg/injection, schedule: Q01DX001 (ip), vehicle: carboxymethylcellulose (CMC)): 100 % of control and 113 % of control
T/C (dose: 177.0 mg/kg/injection, schedule: Q01DX001 (sc), vehicle: olive oil, sesame oil, peanut oil): 107 % of control
T/C [2]: 121 % of control
T/C [3]: 97 % of control
T/C (dose: 266.0 mg/kg/injection, schedule: Q01DX001 (ip), vehicle: carboxymethylcellulose (CMC)): 105 % of control
T/C (dose: 266.0 mg/kg/injection, schedule: Q01DX001 (sc), vehicle: olive oil, sesame oil, peanut oil): 102 % of control
T/C (dose: 400.0 mg/kg/injection, schedule: Q01DX001 (ip), vehicle: carboxymethylcellulose (CMC)): 113 % of control and 119 % of control
T/C (dose: 400.0 mg/kg/injection, schedule: Q01DX001 (sc), vehicle: olive oil, sesame oil, peanut oil): 107 % of control

COc1ccccc1OCCOCCN(C)C1CC(C)CCC1C(C)C (centres undefined)
T/C [4]: 98 % of control

O=C(NCCCl)NC1CCC(O)CC1 (centres undefined)
T/C [5]: 107 % of control
T/C [6]: 100 % of control
T/C [7]: 100 % of control

CC1(C)C(=O)C2C=CCC21 (centres undefined)
T/C (dose: 50.0 mg/kg/injection, schedule: Q01DX009 (ip), vehicle: saline with Tween-80): 91 % of control
T/C [8]: 98 % of control
T/C [9]: 95 % of control

COC(OC)c1[nH]c(=S)[nH]c(=O)c1Cc1ccc(Br)cc1
T/C [10]: 97 % of control
T/C [11]: 94 % of control
T/C [12]: 105 % of control

NS(=O)Oc1ccc(Nc2ncnc3nc[nH]c23)cc1 (centres undefined)
T/C [8]: 97 % of control
T/C [13]: 98 % of control
T/C [9]: 95 % of control
T/C [14]: 102 % of control
T/C (dose: 400.0 mg/kg/injection, schedule: Q01DX009 (ip), vehicle: saline with Tween-80): 104 % of control
T/C [15]: 98 % of control

N#CCCN(C(=O)COc1ccc(Cl)cc1Cl)C1CCCCC1
T/C [1]: 95 % of control
T/C [4]: 95 % of control
T/C [3]: 104 % of control
T/C [16]: 100 % of control
T/C [17]: 95 % of control

O=NN(CCBr)C(=O)NCCBr
T/C (dose: 3.0 mg/kg/injection, schedule: Q01DX Z (ip), vehicle: carboxymethylcellulose (CMC)): 110 % of control
T/C (dose: 6.0 mg/kg/injection, schedule: Q01DX Z (ip), vehicle: carboxymethylcellulose (CMC)): 107 % of control
T/C (dose: 6.25 mg/kg/injection, schedule: Q01DX001 (ip), vehicle: carboxymethylcellulose (CMC)): 104 % of control
T/C (dose: 12.5 mg/kg/injection, schedule: Q01DX001 (ip), vehicle: carboxymethylcellulose (CMC)): 103 % of control
T/C (dose: 25.0 mg/kg/injection, schedule: Q01DX001 (ip), vehicle: carboxymethylcellulose (CMC)): 109 % of control
T/C (dose: 50.0 mg/kg/injection, schedule: Q01DX001 (ip), vehicle: carboxymethylcellulose (CMC)): 114 % of control
T/C (dose: 50.0 mg/kg/injection, schedule: Q01DX Z (ip), vehicle: carboxymethylcellulose (CMC)): 172 % of control
T/C (dose: 100.0 mg/kg/injection, schedule: Q01DX Z (ip), vehicle: carboxymethylcellulose (CMC)): 156 % of control
T/C [2]: 178 % of control
T/C (dose: 300.0 mg/kg/injection, schedule: Q01DX001 (ip), vehicle: carboxymethylcellulose (CMC)): 200 % of control

OCC(O)C1CCCCN1 (centres undefined)
T/C (dose: 100.0 mg/kg/injection, schedule: Q01DX009 (ip), vehicle: saline): 91 % of control
T/C [5]: 97 % of control
T/C (dose: 200.0 mg/kg/injection, schedule: Q01DX009 (ip), vehicle: saline): 100 % of control
T/C [6]: 97 % of control
T/C [7]: 97 % of control

CC[N+]1(C)CCC(CN2c3ccccc3Sc3ccccc32)C1 (centres undefined)
T/C [13]: 100 % of control
T/C [14]: 103 % of control
T/C [15]: 100 % of control

CCOC(=O)CNC(=O)Nc1cccc(Cl)c1Cl
T/C [1]: 102 % of control
T/C [3]: 98 % of control
T/C [17]: 98 % of control

Nc1nc(N)c2c(Cl)c(CNc3ccc(C(=O)NC(CCCC(=O)O)C(=O)O)cc3)ccc2n1 (centres undefined)
T/C (dose: 1.0 mg/kg/injection, schedule: Q01DX009 (ip), vehicle: saline): 170 % of control
T/C (dose: 2.0 mg/kg/injection, schedule: Q01DX009 (ip), vehicle: saline): 150 % of control and 152 % of control
T/C (dose: 4.0 mg/kg/injection, schedule: Q01DX009 (ip), vehicle: saline): 178 % of control and 206 % of control

Cc1cc2nc(N)[nH]c2cc1C
T/C (dose: 12.5 mg/kg/injection, schedule: Q04DX002 (ip), vehicle: saline + alcohol): 96 % of control
T/C (dose: 25.0 mg/kg/injection, schedule: Q04DX002 (ip), vehicle: saline + alcohol): 96 % of control
T/C (dose: 50.0 mg/kg/injection, schedule: Q04DX002 (ip), vehicle: saline + alcohol): 100 % of control

CN(N=O)C(=O)NCCNC(=O)N(C)N=O
T/C (dose: 150.0 mg/kg/injection, schedule: Q01DX Z (ip), vehicle: carboxymethylcellulose (CMC)): 108 % of control

O=C1CCCC1C(=O)Nc1cccc2ccccc12 (centres undefined)
T/C (dose: 50.0 mg/kg/injection, schedule: Q01DX001 (ip), vehicle: saline): 97 % of control
T/C (dose: 100.0 mg/kg/injection, schedule: Q01DX001 (ip), vehicle: saline): 103 % of control
T/C (dose: 200.0 mg/kg/injection, schedule: Q01DX001 (ip), vehicle: saline): 97 % of control
T/C (dose: 400.0 mg/kg/injection, schedule: Q01DX001 (ip), vehicle: saline): 97 % of control

OCCCCCCN=Cc1ccccc1O.OCCCCCCN=Cc1ccccc1O.[Cu]
T/C (dose: 9.5 mg/kg/injection, schedule: Q01DX001 (ip), vehicle: other): 95 % of control
T/C (dose: 19.0 mg/kg/injection, schedule: Q01DX001 (ip), vehicle: other): 100 % of control and 92 % of control
T/C (dose: 19.0 mg/kg/injection, schedule: Q01DX009 (ip), vehicle: other): 93 % of control
T/C (dose: 38.0 mg/kg/injection, schedule: Q01DX001 (ip), vehicle: other): 94 % of control and 95 % of control
T/C (dose: 38.0 mg/kg/injection, schedule: Q01DX009 (ip), vehicle: other): 95 % of control
T/C (dose: 75.0 mg/kg/injection, schedule: Q01DX001 (ip), vehicle: other): 95 % of control and 102 % of control
T/C (dose: 75.0 mg/kg/injection, schedule: Q01DX009 (ip), vehicle: other): 96 % of control

O=C1Nc2ccccc2C2=C3CCCCC3=NNC12 (centres undefined)
T/C [10]: 101 % of control
T/C [11]: 97 % of control
T/C [12]: 108 % of control

Nc1ccc(C(=O)NC(CCC(=O)O)C(=O)O)cc1 (centres undefined)
T/C (dose: 100.0 mg/kg/injection, schedule: Q04DX002 (ip), vehicle: saline with Tween-80): 92 % of control
T/C (dose: 200.0 mg/kg/injection, schedule: Q04DX002 (ip), vehicle: saline with Tween-80): 95 % of control
T/C (dose: 400.0 mg/kg/injection, schedule: Q04DX002 (ip), vehicle: saline with Tween-80): 92 % of control

CCCC[N+](C)(CCCC)CCCC
T/C (dose: 75.0 mg/kg/injection, schedule: Q01DX001 (ip), vehicle: saline): 101 % of control

Cc1cc(C)c(-c2c(Br)c(OC(=O)c3ccc([N+](=O)[O-])cc3)c(-c3c(C)cc(C)c(Br)c3C)c(Br)c2OC(=O)c2ccc([N+](=O)[O-])cc2)c(C)c1Br
T/C [1]: 101 % of control
T/C [4]: 104 % of control
T/C [3]: 97 % of control
T/C [16]: 96 % of control
T/C [17]: 100 % of control
T/C (dose: 400.0 mg/kg/injection, schedule: Q04DX003 (ip), vehicle: Klucel (hydroxypropylcellulose) (HPC)): 96 % of control
